Our source for the Ki and EC50 values is patent US9890152B2 (Genentech, Inc., priority 2012, dated 2018).

T1 sequence (P00533 with tags, fused parts or gaps DEL746-750/T790M limits assumed): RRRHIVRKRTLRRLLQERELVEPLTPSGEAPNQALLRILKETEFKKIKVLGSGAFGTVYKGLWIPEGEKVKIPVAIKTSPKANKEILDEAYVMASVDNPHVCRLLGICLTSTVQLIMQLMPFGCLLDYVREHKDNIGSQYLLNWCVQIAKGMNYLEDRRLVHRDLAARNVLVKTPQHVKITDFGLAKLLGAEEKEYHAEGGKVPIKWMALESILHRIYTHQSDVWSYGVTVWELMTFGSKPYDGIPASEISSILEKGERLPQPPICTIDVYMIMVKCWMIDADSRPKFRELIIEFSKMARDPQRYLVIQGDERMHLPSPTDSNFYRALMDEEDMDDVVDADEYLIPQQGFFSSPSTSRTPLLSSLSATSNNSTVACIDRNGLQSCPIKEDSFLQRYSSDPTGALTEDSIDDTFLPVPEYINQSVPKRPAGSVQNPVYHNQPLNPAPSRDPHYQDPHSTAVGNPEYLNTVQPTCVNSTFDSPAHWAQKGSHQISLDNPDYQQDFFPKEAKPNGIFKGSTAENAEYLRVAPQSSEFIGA

One test addresses T1, EGFR del746-750 T790M (Homo sapiens, UniProt P00533, DEL746-750/T790M).
T1 construct: purchased Carna Biosciences 08-528
Description: EGFR del746-750 T790M biochemical assay (Caliper mobility shift). To be noted: 5 μM ATP, 30 min, room temperature; apparent Ki (Morrison) converted by Cheng-Prusoff, Km of ATP 2.1 μM; read-out: EGFR(T790M/d746-750) Ki.
`CC(CC1CC1)n1c(CO)nc2cnc(Nc3ccnc(-c4cnn(S(=O)(=O)C5CC5)c4)n3)cc21` (centres unmarked) [Example 488, (1-(1-cyclopropylpropan-2-yl)-6-(2-(1-(cyclopropylsulfonyl)-1H-pyrazol-4-yl)pyrimidin-4-ylamino)-1H-imidazo[4,5-c]pyridin-2-yl)methanol]: the Ki was determined as 2.17 nM.
Take `CC1CCC(n2c(CO)nc3cnc(Nc4ccnc(-c5cnn(S(=O)(=O)C6CC6)c5)n4)cc32)C1` (centres unmarked) [Example 697]: the Ki came to 16.9 nM.
Regarding `C[C@H](n1c(CO)nc2cnc(Nc3ccnc(N4CC[C@@H](O)[C@@H](F)C4)n3)cc21)C(F)(F)F` [Example 666], the Ki was 7.26 nM.
As to `COC1CCN(c2nccc(Nc3cc4c(cn3)nc(C)n4C(C)CC#N)n2)CC1` (centres unmarked) [Example 349, 3-(6-((2-(4-Methoxypiperidin-1-yl)pyrimidin-4-yl)amino)-2-methyl-1H-imidazo[4,5-c]pyridin-1-yl)butanenitrile], the Ki was found to be 692 nM.
The same measure, in the same setting: as for `C[C@H](n1c([C@@H](C)O)nc2cnc(Nc3ccnc(N4CC[C@@](C)(O)[C@@H](F)C4)n3)cc21)C(F)(F)F` (single isomer, unassigned) [Example 621, (3R*,4S*)-3-Fluoro-1-{4-[2-((R)-1-hydroxyethyl)-1-((S)-2,2,2-trifluoro-1-methylethyl)-1H-imidazo[4,5-c]pyridin-6-ylamino]pyrimidin-2-yl}-4-methylpiperidin-4-ol], the figure is 21.7 nM; as for `CC[C@H](C)n1cc(C(=O)NC2CCOCC2)c2cnc(Nc3ccnc(N4CC[C@H](OC)[C@H](F)C4)n3)cc21` (single isomer, unassigned) [Example 340], 3.33 nM.
For the compound `CC(C)n1c(CO)nc2cnc(Nc3ccnc(N4CC[C@H]([S+](C)[O-])[C@H](F)C4)n3)cc21` (relative stereo) [Example 623, {6-[2-(cis-3-Fluoro-4-methanesulfinylpiperidin-1-yl)pyrimidin-4-ylamino]-1-isopropyl-1H-imidazo[4,5-c]pyridin-2-yl}methanol], the Ki was 393 nM.
For `CO[C@@H]1CCN(c2nccc(Nc3cc4c(cn3)nc([C@@H](C)O)n4C(C)C)n2)C[C@@H]1F` [Example 659], the Ki is 39.3 nM.
On the same count and under the same terms, next, `Cc1nc2cnc(Nc3ccnc(N4CC[C@H](O)C[C@@H]4C)n3)cc2n1C(C)C` [Example 600]: 75.8 nM; `CO[C@H]1CCN(c2nccc(Nc3cc4c(cn3)nc([C@H](C)O)n4[C@@H](C)C(F)(F)F)n2)C[C@H]1F` [Example 684]: 7.67 nM; `COC[C@H](C)n1c(C)nc2cnc(Nc3ccnc(N4CCC(OC)CC4)n3)cc21` [Example 490, [1-((S)-2-Methoxy-1-methylethyl)-2-methyl-1H-imidazo [4,5-c]pyridin-6-yl]-[2-(4-methoxypiperidin-1-yl)pyrimidin-4-yl]amine]: 746 nM.
As for `Cc1cc(-c2cn(C(C)C)c3cc(Nc4ccnc(-c5cnn(S(=O)(=O)C6CC6)c5)n4)ncc23)n(CCO)n1` [Example 436, 2-(5-(6-(2-(1-(cyclopropylsulfonyl)-1H-pyrazol-4-yl)pyrimidin-4-ylamino)-1-isopropyl-1H-pyrrolo[3,2-c]pyridin-3-yl)-3-methyl-1H-pyrazol-1-yl)ethanol], the Ki was determined as 1.18 nM.
Same read-out and setting: next, `CC(C)n1cnc2cnc(Nc3ccnc(N4CCCC(C(N)=O)C4)n3)cc21` (centres unmarked) [Example 66, 1-(4-(1-isopropyl-1H-imidazo[4,5-c]pyridin-6-ylamino)pyrimidin-2-yl)piperidine-3-carboxamide]: 138 nM; `CO[C@@H]1CCN(c2nccc(Nc3cc4c(cn3)nc(C)n4C(C)C)n2)C[C@H]1O` (racemic) [Example 508, (±)-1-(4-((1-Isopropyl-2-methyl-1H-imidazo[4,5-c]pyridin-6-yl)amino)pyrimidin-2-yl)-4-methoxypiperidin-3-ol]: 359 nM.
Still for that read-out and setting: as for `C[C@H](O)c1nc2cnc(Nc3ccnc(N4CC[C@@H](O)[C@@H](F)C4)n3)cc2n1[C@H](C)C(F)(F)F` [Example 689], the figure is 230 nM; as for `CC(C)n1c(CO)nc2cnc(Nc3ccnc(N4CCCCC4CO)n3)cc21` (centres unmarked) [Example 670], 273 nM.
Consider `Cc1nc2cnc(Nc3ccnc(N4CC[C@@H](S(C)(=O)=O)[C@H](F)C4)n3)cc2n1C(C)C` (racemic) [Example 616, [2-(±)-(trans-3-Fluoro-4-methanesulfonylpiperidin-1-yl)pyrimidin-4-yl]-(1-isopropyl-2-methyl-1H-imidazo[4,5-c]pyridin-6-yl)amine], for which the Ki was 483 nM.
With `Cc1nc2cnc(Nc3ccnc(N4CC[C@H]([S+](C)[O-])[C@H](F)C4)n3)cc2n1C(C)C` (mixture of isomers) [Example 618, [2-(±)-(cis-3-Fluoro-4-methanesulfinylpiperidin-1-yl)pyrimidin-4-yl]-(1-isopropyl-2-methyl-1H-imidazo[4,5-c]pyridin-6-yl)amine], the Ki came to 236 nM.
On the same count and under the same terms, next, `CC(C)n1cc(C(=O)N[C@@H]2CCN(C3COC3)C[C@@H]2F)c2cnc(Nc3ccnc(-c4cnn(S(=O)(=O)C5CC5)c4)n3)cc21` (racemic) [Example 372, (±)-6-((2-(1-(cyclopropylsulfonyl)-1H-pyrazol-4-yl)pyrimidin-4-yl)amino)-N-((cis)-3-fluoro-1-(oxetan-3-yl)piperidin-4-yl)-1-isopropyl-1H-pyrrolo[3,2-c]pyridine-3-carboxamide]: 1.08 nM.
`Cc1nc2cnc(Nc3ccnc(-c4cnn(S(=O)(=O)C5CNC5)c4)n3)cc2n1C(C)C` [Example 467, N-(2-(1-(azetidin-3-ylsulfonyl)-1H-pyrazol-4-yl)pyrimidin-4-yl)-1-isopropyl-2-methyl-1H-imidazo[4,5-c]pyridin-6-amine]: the Ki was determined as 5.77 nM.
Turning to `CC(C)n1c(CO)nc2cnc(Nc3ccnc(N4C[C@@H]5C[C@H]4CO5)n3)cc21` [Example 691], the Ki was 736 nM.
The same measure, in the same setting: as for `C[C@H](n1c([C@@H](C)O)nc2cnc(Nc3ccnc(OCC(C)(C)S(C)(=O)=O)n3)cc21)C(F)(F)F` [Example 609, (R)-1-[6-[2-(2-Methanesulfonyl-2-methylpropoxy)pyrimidin-4-ylamino]-1-((S)-2,2,2-trifluoro-1-methylethyl)-1H-imidazo[4,5-c]pyridin-2-yl]ethanol], the figure is 13.1 nM; as for `CC(C)n1c(CO)nc2cnc(Nc3ccnc(N4CC[C@@H](O)[C@H](C)C4)n3)cc21` (racemic) [Example 630, (±)-(trans)-1-(4-(2-(Hydroxymethyl)-1-isopropyl-1H-imidazo[4,5-c]pyridin-6-ylamino)pyrimidin-2-yl)-3-methylpiperidin-4-ol], 202 nM; as for `Cc1nc2cnc(Nc3ccnc(N4CCC(O)CC4)n3)cc2n1C(C)C` [Example 503, 1-(4-((1-Isopropyl-2-methyl-1H-imidazo[4,5-c]pyridin-6-yl)amino)pyrimidin-2-yl)piperidin-4-ol], 128 nM.

A further test deals with T2, phosphor-EGFR in H1975(L585R/T790M) mutant EGFR expressing cells (Homo sapiens, UniProt P00533, L858R/T790M).
T2 construct: host or cells: NCI-H1975
T2 sequence (P00533 25-1210 T790M/L858R): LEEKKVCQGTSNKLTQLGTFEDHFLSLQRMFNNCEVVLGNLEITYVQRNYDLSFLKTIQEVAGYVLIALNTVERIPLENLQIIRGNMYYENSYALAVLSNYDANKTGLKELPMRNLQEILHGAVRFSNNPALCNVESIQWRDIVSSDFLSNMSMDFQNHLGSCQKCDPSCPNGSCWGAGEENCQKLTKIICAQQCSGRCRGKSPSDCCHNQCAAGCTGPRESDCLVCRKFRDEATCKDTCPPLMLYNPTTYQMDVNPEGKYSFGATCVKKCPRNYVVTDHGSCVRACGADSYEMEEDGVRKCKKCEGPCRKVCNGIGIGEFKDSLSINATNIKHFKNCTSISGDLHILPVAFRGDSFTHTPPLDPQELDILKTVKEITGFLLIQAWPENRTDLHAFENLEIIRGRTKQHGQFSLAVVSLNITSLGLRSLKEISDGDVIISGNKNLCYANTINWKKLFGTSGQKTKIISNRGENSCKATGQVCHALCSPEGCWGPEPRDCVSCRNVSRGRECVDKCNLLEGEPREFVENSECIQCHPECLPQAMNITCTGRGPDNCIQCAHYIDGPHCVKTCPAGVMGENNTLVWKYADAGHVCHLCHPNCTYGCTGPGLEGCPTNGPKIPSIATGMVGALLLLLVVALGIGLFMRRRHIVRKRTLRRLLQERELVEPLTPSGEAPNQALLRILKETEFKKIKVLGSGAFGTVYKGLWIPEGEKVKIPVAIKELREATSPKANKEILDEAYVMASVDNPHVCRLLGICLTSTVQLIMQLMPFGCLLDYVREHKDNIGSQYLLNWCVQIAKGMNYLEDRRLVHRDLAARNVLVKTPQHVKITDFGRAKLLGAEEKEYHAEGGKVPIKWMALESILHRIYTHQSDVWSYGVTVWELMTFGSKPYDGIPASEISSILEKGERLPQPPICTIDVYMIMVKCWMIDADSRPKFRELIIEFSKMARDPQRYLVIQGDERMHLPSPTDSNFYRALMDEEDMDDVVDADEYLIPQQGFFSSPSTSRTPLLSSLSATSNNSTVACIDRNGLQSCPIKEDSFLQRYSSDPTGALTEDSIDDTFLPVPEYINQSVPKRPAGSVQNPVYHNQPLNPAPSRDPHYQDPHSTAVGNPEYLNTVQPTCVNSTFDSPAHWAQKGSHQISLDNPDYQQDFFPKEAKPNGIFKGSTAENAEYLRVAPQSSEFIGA
Description: H1975 pEGFR MSD cellular assay. The class given is cell-based. To be noted: NCI-H1975 cells, serum starved, 1 hour compound incubation, pEGFR Tyr1068 MSD. As for the experimental part: H1975 pEGFR MSD Cellular Assays Background:
These assays are intended for determining cellular. […] (Meso Scale Discovery Catalog# N31CB-1).
All cell culture reagents were purchased from Invitrogen/Gibco. Cells are cultured at 37° C. at 5% CO2 and split as recommended by ATCC.
Cell Plating and Serum Starvation:
After six hours, culture medium is aspirated and replaced with serum-free culture medium. Cells are then incubated with the serum-free medium overnight at 37° C. and 5% CO2.
The following day, test compounds are serially diluted in dimethyl sulfoxide (DMSO) and added to cells in serum free medium (final DMSO concentration 0.5%). Assay plates are then incubated for 1 hour at 37° C. and 5% CO2. Following 1 hour of compound incubation cells are then lysed and processed as per the MSD pEGFR assay kit protocol. Cell lysates are added to assay plates pre-coated with antibodies against phosphorylated EGFR. Phosphorylated EGFR in samples are allowed to bind to the capture antibodies overnight at 4° C. The detection antibody (anti-total EGFR, labeled with an electrochemiluminescent SULFO-TAG) is added to the bound lysate and incubated for 1 hour at room temperature. The MSD Read Buffer is added such that when a voltage is applied to the plate electrodes, the labels bound to the electrode surface emit light. The MSD Sector Instrument measures the intensity of the light, and quantitatively measures the amount of phosphorylated-EGFR in the sample. Percent inhibition of EGFR phosphorylation by varying concentrations of test compounds is calculated relative to untreated controls. EC50 values are calculated using the 4 parameter logistic nonlinear regression dose-response model.
As for `CC(C)n1c(OCCO)nc2cnc(Nc3ccnc(-c4cnn(S(=O)(=O)C5CC5)c4)n3)cc21` [Example 282, 2-{6-[2-(1-Cyclopropanesulfonyl-1H-pyrazol-4-yl)pyrimidin-4-ylamino]-1-isopropyl-1H-imidazo[4,5-c]pyridin-2-yloxy}ethanol], the EC50 (in general, the concentration that produces a half-maximal response) was 414 nM.
The same measure, in the same setting: next, `COC1(CO)CCN(c2nccc(Nc3cc4c(cn3)c(-c3cnn(C(C)(C)C(N)=O)c3)cn4C(C)C)n2)CC1` [Example 445, 2-(4-(6-(2-(4-(hydroxymethyl)-4-methoxypiperidin-1-yl)pyrimidin-4-ylamino)-1-isopropyl-1H-pyrrolo[3,2-c]pyridin-3-yl)-1H-pyrazol-1-yl)-2-methylpropanamide]: 831 nM; `Cc1nc2cnc(Nc3ccnc(-c4cnn(CC5CC5)c4)n3)cc2n1C(C)C` [Example 395, N-(2-(1-(cyclopropylmethyl)-1H-pyrazol-4-yl)pyrimidin-4-yl)-1-isopropyl-2-methyl-1H-imidazo[4,5-c]pyridin-6-amine]: 1340 nM; `CC1(C)COCc2nc3cnc(Nc4ccnc(-c5cnn(S(=O)(=O)C6CC6)c5)n4)cc3n21` [Example 538, [2-(1-Cyclopropanesulfonyl-1H-pyrazol-4-yl)-pyrimidin-4-yl]-(4,4-dimethyl-3,4-dihydro-1H-2-oxa-4a,7,9-triazafluoren-6-yl)amine]: 838 nM.
`CC(C)n1cc(C(N)=O)c2cnc(Nc3ccnc(-c4cnn(S(=O)(=O)C5CC5)c4)n3)cc21` [Example 51, 6-((2-(1-(Cyclopropylsulfonyl)-1H-pyrazol-4-yl)pyrimidin-4-yl)amino)-1-isopropyl-1H-pyrrolo[3,2-c]pyridine-3-carboxamide] returned an EC50 of 181 nM.
